Experimental data taken from US10870635B2, “Compounds and their use as BACE1 inhibitors” (ALLGENESIS BIOTHERAPEUTICS, INC., priority 2015, dated 2020).

Experiments:
[1] = tested on: Aβ38, Aβ40 and Aβ42 in CSF; assay: Efficacy study in monkeys: Aβ biomarkers in CSF after single oral administration; type: in vivo, cynomolgus monkeys; settings: Monkey CSF
Source text: Certain isoforms of amyloid β peptide (AR), such as Aβ338, Aβ340 and Aβ342 have been established as relevant biomarkers that reflect BACE1 activity and have been exploited to establish translational relationships between different cellular assays and animal models. In this efficacy study, mammals were used to assess amyloid β reduction with BACE1 inhibitors. In a clinical setting, plasma and cerebrospinal fluid (CSF) are the accessible compartments to measure soluble amyloid β levels to determine target profile. It is important to analyze plasma and CSF levels which relate to changes in brain amyloid β levels. The concentration of BACE1 inhibitors and their time-dependent reduction of plasma, CSF and brain amyloid β levels were investigated following intravenous and oral administrations of BACE1 inhibitors.
a (ii). Formulation for PO administration: 5% (v/v) PEG400+95% (v/v) of 1% (w/v) methyl cellulose in water (the viscosity of methyl cellulose is 20 g/L, 20° C., cPa·s: 350.0-550.0). The test article solutions were prepared by dissolving the compound in PEG400 followed by the addition of the aqueous solution to the final volume.
For the oral formulation of a BACE1 inhibitor in the monkey efficacy study (at the dose of 20 mg/kg with the concentration of 2 mg/ml)
1) Weighed […] of the selected BACE1 inhibitors into a clean vial;
2) Added 2.826 mL of PEG400 into the tube containing the compound. Then vortexed for 5 min and sonicated for 45 min;
3) Added 53.688 mL of 1% MC in water into the tube containing the compound. Then vortexed for 4 min and sonicated for 4 min; and
4) Adjusted the pH to the physiological value by using 1N NaOH.
Several studies have shown that drug transport into the CNS may be more similar between humans and primates. […] To explore the mechanism of BACE1 compounds, the compounds were tested using this in vivo study. […] The monkey Aβ reduction study usually takes 3 weeks.
The time-course profiles of neurodegeneration biomarkers were determined following single oral administration of the selected BACE1 inhibitors to male cynomolgus monkeys. Blood samples were collected from all animals via the saphenous vein or cephalic vein at 0 (pre-dose), 0.5, 1, 3, 6, 8, 12 and 24 hr post-dose into test tubes containing potassium ethylenediaminotetraacetic acid (K2EDTA). CSF samples were collected via a pre-implanted cannula at the foramina occipital magnum site at 0 (pre-dose), 3, 6, 12 and 24 hr post-dose.
Plasma was separated from the blood by centrifugation at 4° C. and stored at −80° C. until analyzing. The biomarkers of Aβ38, Aβ40 and Aβ42 in CSF were quantified using Meso Scale Discovery (MSD) multiplex electrochemiluminescence immunoassay according to the manufacturer's instructions. The plates were first blocked with 150 μL of Diluent 35 for 1 hour at room temperature with constant shaking at 600 rpm. After washing three times with 200 μL washing buffer, 25 μL of 1× detection antibody solution, plus Aβ40 blocker, 25 μL of seven standards, zero standard and four-fold diluted samples were added to the assay plate. The plate was incubated for 2 hours at room temperature, with constant shaking at 600 rpm. Upon finishing, the plate was washed three times with washing buffer and read in a Sector Imager 6000 (MSD) immediately after addition of 150 μL of 2× Read Buffer T. Aβ concentrations were calculated with reference to the standard curves of each individual peptide and expressed as pg/mL using SoftMax Pro GXP 5.4.4.

[2] = target: BACE1 (recombinant β-secretase enzyme) (Homo sapiens (Human), UniProt P56817); assay: AnaSpec BACE1 fluorescent assay (beta-secretase activity assay); type: biochemical
Chain of BACE1 (recombinant β-secretase enzyme) (P56817 46-501): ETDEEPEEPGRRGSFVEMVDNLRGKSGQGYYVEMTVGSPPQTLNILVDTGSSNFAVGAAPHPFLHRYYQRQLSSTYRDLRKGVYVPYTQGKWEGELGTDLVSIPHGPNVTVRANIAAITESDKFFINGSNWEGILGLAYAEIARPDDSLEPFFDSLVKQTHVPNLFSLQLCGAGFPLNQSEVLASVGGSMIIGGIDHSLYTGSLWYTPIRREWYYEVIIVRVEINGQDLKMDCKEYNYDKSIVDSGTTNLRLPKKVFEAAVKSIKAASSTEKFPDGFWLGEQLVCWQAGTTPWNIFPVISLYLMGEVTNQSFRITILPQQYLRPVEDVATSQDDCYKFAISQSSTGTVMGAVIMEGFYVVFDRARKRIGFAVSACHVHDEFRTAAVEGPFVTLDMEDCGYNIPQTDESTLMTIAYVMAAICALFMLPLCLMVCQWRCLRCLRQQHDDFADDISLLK
Method: A BACE1 activity assay kit from AnaSpec (Fremont, Calif.) was used to determine the potency of the selected BACE1 inhibitors by AnaSpec BACE1 fluorescent assay. The recombinant β-secretase enzyme was diluted 1:200 in 1× assay buffer (1 part of 1× assay buffer and 1 part of TBS containing 0.1% Tween 20). The enzyme was added in a volume of 40 μl to each well of a black 96-well micro plate.
The BACE1 inhibitors were serially diluted into DMSO from their 10 mM stock concentrations in DMSO. The serially diluted inhibitors were diluted 1:100 into 1× assay buffer in a 96-well polypropylene plate (assay dilution plate). The final concentration of the BACE1 inhibitor tested was 300 nM, 100 nM, 30 nM, 10 nM, 3 nM, 1 nM 0.3 nM, and 0.00 nM. Dose responses for inhibitors were run in duplicate.
A volume of 10 μl of the inhibitor from the assay dilution plate, a control inhibitor LY2886721 or inhibitor vehicle was then added to each well of the black 96-well micro plate containing BACE1.
(§1) To each well of the black 96-well micro plate, 50 μl of the β-secretase substrate (Hylite Fluor 488) diluted 1:100 using assay buffer was added. The reagents were mixed gently and the assay plate was placed into a POLARstar fluorescent plate reader with excitation wavelength set at 485 nm and the emission wavelength set at 520 nm. The plate reader was set to take readings every 5 minutes for up to 30 minutes or a 30 minute endpoint reading was used.
An appropriate integrated first-order rate equation was used to fit the data accumulated over a 30-40 minute collection period.

[3] = target: Human recombinant cathepsin D (Homo sapiens (Human), UniProt P07339); assay: Cathepsin D activity assay; type: biochemical; settings: read-out: CatD IC50
Chain of Human recombinant cathepsin D (P07339 65-412): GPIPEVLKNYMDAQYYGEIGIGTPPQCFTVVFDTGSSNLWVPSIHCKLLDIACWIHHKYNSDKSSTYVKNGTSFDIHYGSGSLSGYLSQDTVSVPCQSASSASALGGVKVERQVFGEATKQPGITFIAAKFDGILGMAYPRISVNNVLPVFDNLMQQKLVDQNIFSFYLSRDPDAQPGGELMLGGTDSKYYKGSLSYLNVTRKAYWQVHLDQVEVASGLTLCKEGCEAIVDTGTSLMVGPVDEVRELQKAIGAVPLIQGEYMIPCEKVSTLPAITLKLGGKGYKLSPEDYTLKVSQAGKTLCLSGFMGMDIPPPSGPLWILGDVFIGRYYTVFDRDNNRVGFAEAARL
Method: The development of a CatD activity assay is used to determine any potential cross reactivity for compounds selected from the β-secretase activity assay and to determine the selectivity to BACE1 inhibition. The CatD activity is reported for assessing target selectivity ratio (CatD IC50/BACE1 IC50).
The reagents for the cathepsin D assay were prepared as follows.
Human recombinant cathepsin D stored frozen in 2.0 μl aliquots was thawed and 42 μl of enzyme buffer (0.1M NaOAC, 0.2 M NaCl, pH 3.5) was added and incubated at 37° C. for 30 minutes. After 30 minutes the enzyme was further diluted to a final volume of 4.4 ml in enzyme buffer containing 5.0 mM DTT for immediate use in the cathepsin D assay.
The 7-methoxycoumarin-labeled peptide substrate (ES010) for cathepsin D was supplied as a 6.2 mM stock in DMSO. For use in the cathepsin D assay, the 6.2 mM stock was diluted to a 1.55 mM stock with DMSO. The 1.55 mM peptide stock in DMSO was further diluted 1:100 in reaction buffer (0.1M NaOAC, 0.2M NaCl, 0.1% Tween 20, 5.0 mM DTT, pH3.5) to create a 15.5 μM stock for use in the assay.
DMSO without compound served as a DMSO vehicle control for the cathepsin D assay. For each test compound, 30 μl of each dilution was pipetted into a separate well of a 96-well polypropylene plate. This polypropylene plate was labeled as the DMSO dilution plate and a plate map of test compound locations was made.
Test compounds from the DMSO dilution plate require a 1:100 dilution into reaction buffer before they can be added to the cathepsin D assay plate. To accomplish the 1:100 dilution of test compounds, 2.0 μl of each test compound at each concentration was pipetted from the DMSO dilution plate (using a multi-channel pipette calibrated to accurately dispense a 2.0 μl volume) into a new 96-well polypropylene plate using the plate map created for the DMSO dilution plate. This 96-well plate served as the inhibitor dilution plate. Next, 198 μl of reaction buffer was pipetted into each well of the inhibitor dilution plate (using a multi-channel pipette calibrated for accurate delivery of a 198 μl volume) and the pipetted test compound mixed by gentle up and down pipetting.
A1.0 mM stock of pepstatin A was made in DMSO and aliquotted into 5.0 μl samples for freezing and storage at −20° C. Upon thawing, 45 μl of DMSO (1:10 dilution) was added to create a 100 μM stock of pepstatin A in DMSO. The 100 μM Pepstatin A stock was further diluted 1:10 with DMSO to create a 10 μM stock in DMSO. […]
The assay plate was placed into a fluorescent plate reader with the excitation wavelength set at 320 nm and the emission wavelength set at 405 nm. Readings were collected every minute over a 30 minute collection period.

recombinant BACE2 = recombinant BACE2 (Homo sapiens (Human), UniProt Q9Y5Z0); assay: AnaSpec BACE2 fluorescent assay; type: biochemical
Chain of recombinant BACE2 (Q9Y5Z0 63-518): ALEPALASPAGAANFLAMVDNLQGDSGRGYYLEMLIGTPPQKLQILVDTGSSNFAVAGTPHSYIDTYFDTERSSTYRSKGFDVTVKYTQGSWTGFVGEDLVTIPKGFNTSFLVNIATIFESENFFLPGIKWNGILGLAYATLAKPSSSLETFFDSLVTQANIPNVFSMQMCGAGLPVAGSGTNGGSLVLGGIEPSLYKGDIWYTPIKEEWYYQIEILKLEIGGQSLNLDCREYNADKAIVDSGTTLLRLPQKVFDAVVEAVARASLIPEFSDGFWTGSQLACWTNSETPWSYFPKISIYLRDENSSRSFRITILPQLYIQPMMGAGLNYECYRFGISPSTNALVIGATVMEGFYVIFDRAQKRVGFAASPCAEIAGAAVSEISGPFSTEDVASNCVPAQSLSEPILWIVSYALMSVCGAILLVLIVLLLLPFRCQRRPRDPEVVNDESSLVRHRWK
Method: A BACE2 activity assay kit from AnaSpec (Fremont, Calif.) was used to determine the potency of the selected compounds by AnaSpec BACE2 fluorescent assay. To each well of a black 96-well micro plate, 50 μl of the β-secretase substrate (Hylite Fluor 488) diluted 1:100 using assay buffer was first added.
The compounds were serially diluted (1:2) into DMSO from their 10 mM stock concentrations in DMSO. The serially diluted inhibitors were diluted 1:100 into 1× assay buffer in a 96-well polypropylene plate (assay dilution plate). The final concentration of these compounds tested was 300 nM, 150 nM, 75 nM, 37.5 nM, 18.75 nM, 9.375 nM, 4.688 nM, 2.344 nM, 1.172 nM, 0.586 nM, and 0.293 nM.
A volume of 10 μl of the inhibitor from the assay dilution plate, a control inhibitor LY2886721 or inhibitor vehicle was then added to each well of the black 96-well micro plate.
The recombinant BACE2 was diluted in an assay buffer and the final BACE2 was 10.6 nM. The enzyme was added in a volume of 40 μl to each well of a black 96-well micro plate.
as §1, with “The” for “To each well of the black 96-well micro plate, 50 μl of the β-secretase substrate (Hylite Fluor 488) diluted 1:100 using assay buffer was added. The”
An appropriate integrated first-order rate equation was used to fit the data accumulated over a 30-40 minute collection period. Dose responses for inhibitors were run in duplicate.

[4] = in humans; cited from earlier work
[5] = animal toxicology study; cited from earlier work
[6] = tested on: CSF Aβ40, Aβ42 and soluble APPβ; settings: AD patients, reported by Merck; cited from earlier work

SMILES | % of maximum Aβ40 inhibition over 24 hours [1] [%] | IC50 [2] [nM] | also measured
CC#Cc1ccc2sc3cc(F)c([C@]4(C)CC(=O)N(C)C(=N)N4)cc3c2c1 [Example 72, (S)-6-(3-Fluoro-8-(prop-1-yn-1-yl)dibenzo[b,d]thiophen-2-yl)-2-imino-3,6-dimethyltetrahydropyrimidin-4(1H)-one] | 33.7 | 21 | –
CC#Cc1cc2c(cc1F)sc1ccc([C@]3(C)CS(=O)(=O)C(C)(C)C(=N)N3)cc12 [Example 128, (R)-5-(7-Fluoro-8-(prop-1-yn-1-yl)dibenzo[b,d]thiophen-2-yl)-3-imino-2,2,5-trimethylthiomorpholine 1,1-dioxide] | 49.1 | – | –
CC#Cc1ccc2sc3cc(Cl)c([C@]4(C)CC(=O)N(C)C(N)=N4)cc3c2c1 [Example 71, (S)-2-Amino-6-(3-chloro-8-(prop-1-yn-1-yl)dibenzo[b,d]thiophen-2-yl)-3,6-dimethyl-5,6-dihydropyrimidin-4(3H)-one] | – | 44 | IC50 [3]: 3900 nM; IC50 (recombinant BACE2): 23.8 ± 1.52 nM
NC1=N[C@@]2(c3cc(NC(=O)c4ccc(F)cn4)ccc3F)COC[C@H]2CS1 [LY-2886721] | – | – | toxicity finding leading to termination [4]: liver toxicity
CC#Cc1ccc2[nH]c([C@]3(C)CC(=O)N(C)C(=N)N3)c(Cl)c2c1 [Example 38, (S)-6-(3-Chloro-5-(prop-1-yn-1-yl)-1H-indol-2-yl)-2-imino-3,6-dimethyl-tetrahydropyrimidin-4(1H)-one] | – | 44 | IC50 (recombinant BACE2): 24 nM
CC#Cc1ccc2sc3ccc([C@]4(C)CS(=O)(=O)C5(CC5)C(=N)N4)cc3c2c1 [Example 136, (R)-8-Imino-6-methyl-6-(8-(prop-1-yn-1-yl)dibenzo[b,d]thiophen-2-yl)-4-thia-7-azaspiro[2.5]octane 4,4-dioxide] | 44.5 | – | –
C[C@@]1(c2cc(-c3cncnc3)c(F)cc2F)CCSC(N)=N1 [LY-2811376] | – | – | toxicity finding leading to discontinuation [5]: retinal toxicity
CN1C(=N)N[C@](C)(c2cc(NC(=O)c3ccc(F)cn3)ccc2F)CS1(=O)=O [MK-8931] | – | – | effect on CSF Aβ40, Aβ42 and soluble APPβ [6]: reduce CSF Aβ40, Aβ42 and soluble APPβ
CC#Cc1ccc2sc3ccc([C@]4(C)CC(=O)N(C)C(=N)N4)cc3c2c1 [Example 1, (S)-2-Imino-3,6-dimethyl-6-(8-(prop-1-yn-1-yl)dibenzo[b,d]thiophen-2-yl)tetrahydropyrimidin-4(1H)-one] | – | 26 | IC50 [3]: 12300 nM
